This note sets out measurements from patent publication US5723465A, “Inhibitors for cell adhesion and cellular infiltration” (Kowa Co., Ltd., priority 1995, dated 1998).

Experiment [1] has as its system lymphocyte infiltration (CD3 positive cells) in mouse contact dermatitis. The experiment is described as follows: Lymphocyte infiltration inhibitory action in mouse contact dermatitis. The class given is in vivo, mouse (ddy male). The settings on record: 6 successive days before induction, 24 h after picryl chloride; for Ear weight (difference in weight of both ears): control 4.9 ± 0.7; for Count of CD3 positive cells: control 10.8 ± 1.3. The procedure: In accordance with a method described by Asherson et al. (Immunology, 15, 405-416 (1968)), action of the compound on lymphocyte infiltration in mouse contact dermatitis was investigated. Groups of ddy male mice that had been sensitized with picryl chloride, each group consisting of 10 animals (body weight: 28-32 g), were provided for the test. Test compound 2 was intraperitoneally administered to each animal for successive 6 days before induction took place (1 or 10 mg/kg). A 1% solution of picryl chloride-olive oil (0.02 ml) was applied to an ear of each animal. Twenty-four hours later, both ears were punched (7 mm.phi.), to thereby compute the difference in weight. The ears were then embedded in paraffin, frozen, and cut in a vertical direction with respect to the ear face to prepare thin slices each having a thickness of 4 μm. CD3 positive cells were immunostained and counted.

Experiment [2] concerns leukocyte infiltration in rat carrageenin pleurisy. The experiment can be described thus: Leukocyte infiltration inhibitory action in rat carrageenin pleurisy. The settings on record: 2 successive days, 16 h after carrageenin; for Count of infiltrated cells: control 2.37 ± 0.06; for Pleural fluid volume: control 3.3 ± 0.3. The class given is in vivo. The procedure:
In accordance with a method described by Kikuchi et al. (Japan J. Pharmacol., 39, 467-473 (1985)), action of the compound on leukocyte infiltration in rat carrageenin pleurisy was investigated. Groups of SD male […], each group consisting of 6 animals (7 weeks old), were provided for the test. Test compound 2 was intraperitoneally administered to each animal for successive 2 days (10 or 30 mg/kg). Two hours after the final administration, a 2% (w/v) carrageenin solution (0.1 ml) was intrathoracically administered. Sixteen hours later, each animal was exsanguinated to death, and pleural fluid was collected. The volume of the collected pleural fluid was measured, and cells that infiltrated and present in the pleural fluid were counted.

Experiment [3] deals with infiltration of trachea by eosinocytes. The experiment is described as follows: Inhibition of eosinocyte infiltration in a guinea pig asthma model. The class given is in vivo, guinea pig (Hartley male). The settings on record: 6 successive days plus 2 hours after challenge, 24 h after, control 204.5 ± 15.3, blank 67.7 ± 7.2. On the procedure: In accordance with a method described by Terashi (Allergy, 37, 980-991 (1988)), groups of Hartley male guinea pigs, each group consisting of 4-7 animals (body weight: about 300 g), were exposed to chicken egg albumin (10 mg/ml) by way of inhalation using a ultrasonic nebulizer for 10 minutes a day for successive 9 days, to thereby create a sensitized state of the animals. From the following day, test compound 2 was intraperitoneally administered to each animal for successive 6 days (10 or 30 mg/kg). On day 7, metopyrone (10 mg/kg) and chlorphenylamine (10 mg/kg) were intraperitoneally administered to each animal. Thirty minutes later, each animal was exposed to chicken egg albumin (10 mg/ml) for 10 minutes by way of inhalation. In addition, 2 hours thereafter, test compound 2 was intraperitoneally administered to each animal. Twenty-four hours later, each animal was exsanguinated to death, and its trachea was removed. The trachea was fixed with formalin and embedded in paraffin, so as to prepare thin slice samples. The samples were subjected to luna staining, and eosinocytes that infiltrated were counted.

For experiment [4], the system named is mouse type II collagen arthritis. The experiment is described as follows: Action on mouse type II collagen arthritis. The conditions noted are these: 30 mg/kg intraperitoneally once daily, 10 times. The class given is in vivo, mouse (DBA/1 male). On the procedure: The test was performed in accordance with a method described by Ranges et al. (J. Exp. Med., 162, 1105-1110 (1985)). To each of DBA/1 male mice (6-7 weeks old), 100 μg of type II collagen from bovine suspended in Freund's complete adjuvant was subcutaneously injected at the root of its tail. Twenty one days later, the mice was given a booster injection in a similar manner. The drug was intraperitoneally administered to each mouse once every day starting from 2 days prior to the booster injection until 7 days after the booster injection (a total of 10 times). The severity of arthritis was evaluated by measuring the thickness of the front foot pads. In addition, antibody titers (IgG+IgM) against type II collagen in serum were determined by ELISA.

The test system of experiment [5] is adhesion of U937 cells to human umbilical vein endothelial cells (HUVEC). The experiment can be described thus: Cell adhesion inhibitory effect: adhesion of U937 cells to IL-1β- or TNFα-stimulated HUVEC. The class given is cell-based. The conditions noted are these: 0.75 h, 45 minutes adhesion at room temperature. On the procedure: The test was performed with reference to a method described by Ross et al (J. Biol. Chem., 267, 8537-8543 (1992)). Briefly, endothelial cells derived from the human umbilical code vein (HUVEC) were cultured in a 48-well plate until they became confluent. Subsequently, IL-1β or TNFα was added. Five hours after the addition, U937 cells which are derived from human monocytes/histiocytes and FITC-labeled with PKH2 (Dainippon Seiyaku) were added to each well in an amount of 3×10^5 cells per well. After being allowed to stand for 45 minutes at room temperature, U937 cells which had not been adhered to were washed off, and the remaining cells were lysed using 1% Triton X-100. Fluorescent intensity was measured (Exi. 494 nm, Emi. 504 nm). The HUVEC cells were cultured in EGM-UV (Kurabo Industries Ltd.), and U937 cells were cultured in RPMI1640 plus 10% FCS. Each test drug (compound) was added to HUVEC simultaneously with the addition of IL-1β or TNFα, or to U937 cells 24 hours before the cell adhesion test, to thereby study the effect of the compound. The inhibitory activity was determined by the following equation: […]
(the number of drug-free U937 cells adhered to drug-free endothelial cells that have been stimulated with IL-1β or TNFα)--(the number of drug-free U937 cells adhered to drug-free endothelial cells that have not been stimulated with IL-1β or TNFα)=100%

The mark [6] stands for this setting: 10 mg/kg intraperitoneally, p <0.05.
Where [7] appears, read: 30 mg/kg intraperitoneally, p <0.01.
The mark [8] stands for this setting: IL-1β-stimulated HUVEC, read-out: Cell Adhesion (IC50), IL-1β Stimulation.
Setting [9] is: TNFα-stimulated HUVEC, read-out: Cell Adhesion (IC50), TNFα Stimulation.

For orientation: IC50 means the concentration that gives 50% inhibition.

Structures are written as SMILES. Like-named read-outs stand apart in the source and are kept apart here.

For `COc1cc(/C=C/CCCN2CCCN(CCC/C=C/c3cc(OC)c(OC)c(OC)c3)CC2)cc(OC)c1OC` [Test Compound 2, N,N'-bis-((E)-5-(3,4,5-trimethoxyphenyl)-4-pentenyl)homopiperazine.2HCl], the “Ear weight (difference in weight of both ears)” value turned out to be 4.5 ± 0.8 mg/7 mm.phi in experiment [1] (1 mg/kg intraperitoneally) and 2.9 ± 0.6 mg/7 mm.phi in experiment [1] (setting [6]). Further, the “Count of CD3 positive cells” value in experiment [1] (1 mg/kg intraperitoneally, p <0.05) was 7.8 ± 0.4 cells/mm; in experiment [1] (10 mg/kg intraperitoneally, p <0.01) it was 4.2 ± 0.7 cells/mm. Also, the results for the “Count of infiltrated cells” value in experiment [2] (10 mg/kg intraperitoneally) and in experiment [2] (setting [7]) were 1.97 ± 0.05 × 10^8 and 1.68 ± 0.22 × 10^8, respectively. The Pleural fluid volume in experiment [2] (10 mg/kg intraperitoneally) was 2.5 ± 0.3 mL; in experiment [2] (30 mg/kg intraperitoneally, p <0.05), 2.5 ± 0.3 mL. Moreover, the “Infiltration of trachea by eosinocytes” value is 171.0 ± 6.5 cells/mm in experiment [3] (setting [6]) and 122.2 ± 7.0 cells/mm in experiment [3] (setting [7]). Besides, the “Thickness of front foot pad, after 30 days” value in experiment [4] (after 30 days, control 421.3 ± 13.1, blank 361.0 ± 4.2, p <0.05) was 384.8 ± 6.9 × 10^-2 mm. For the same compound, the “Antibody titer against collagen (IgG + IgM), after 33 days” value in experiment [4] (serum, ELISA, after 33 days, control 1.00 ± 0.13, blank 0 ± 0.00, p <0.01) is 0.43 ± 0.10 percentage with respect to the.

On to `COc1cc(/C=C\CCCN2CCCN(CCC/C=C\c3cc(OC)c(OC)c(OC)c3)CC2)cc(OC)c1OC` [compound 1], for which the IC50 was found to be 9.7 µM in experiment [5] (setting [8]) and 8 µM in experiment [5] (setting [9]).

Take `COc1cc(/C=C/CCCN2CCCN(CCC/C=C/c3cc(OC)c(OC)c(OC)c3)CC2)cc(OC)c1OC` [compound 2]: the results for the IC50 in experiment [5] (setting [8]) and in experiment [5] (setting [9]) were 9 µM and 9.5 µM, respectively.

For the compound `COc1ccccc1/C=C/CN1CCN(C/C=C/c2ccccc2OC)CC1` [compound 3], the IC50 in experiment [5] (setting [8]) was found to be 3.4 µM; in experiment [5] (setting [9]), 12.9 µM.

As for `COc1ccc(/C=C/CCCN2CCN(CCC/C=C/c3ccc(OC)cc3)CC2)cc1` [compound 4], the IC50 in experiment [5] (setting [8]) was 11.1 µM; in experiment [5] (setting [9]), 9.4 µM.
